Laboratory results from patent publication US8486977B2, “1,2,3-triazole derivatives for use as stearoyl-CoA desaturase inhibitors” (GlaxoSmithKline LLC, priority 2007, dated 2013).

target: T1, SCD (Rattus norvegicus, UniProt P07308); test: in vitro assay for SCD activity based on production of [3H]H2O; assay type: biochemical; conditions: SCD-containing rat microsomes (2 μg protein), [9,10-3H] stearoyl Coenzyme A 1 μM, 6 min incubation
T1 construct: SCD-containing rat microsomes (2 μg protein); from tissue
T1 sequence (P07308 1-358): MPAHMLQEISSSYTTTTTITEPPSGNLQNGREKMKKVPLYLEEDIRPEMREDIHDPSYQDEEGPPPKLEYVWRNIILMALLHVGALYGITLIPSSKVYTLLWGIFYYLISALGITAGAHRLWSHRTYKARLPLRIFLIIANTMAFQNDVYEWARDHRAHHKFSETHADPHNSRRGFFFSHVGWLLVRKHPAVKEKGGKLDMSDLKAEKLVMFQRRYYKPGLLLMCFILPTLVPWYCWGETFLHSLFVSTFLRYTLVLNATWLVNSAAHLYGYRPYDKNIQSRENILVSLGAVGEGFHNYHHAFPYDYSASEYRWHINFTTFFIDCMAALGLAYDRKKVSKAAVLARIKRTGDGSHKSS
Protocol: The compounds of the present invention may be analysed in vitro for SCD activity using an assay based on the production of [^3H]H2O, which is released during the enzyme-catalyzed generation of the monounsaturated fatty acyl CoA product. The assay is performed in a 96-well filtration plates. The titrated substrate used in the assay is the [9,10-^3H] stearoyl Coenzyme A. After incubation for 6 minutes of SCD-containing rat microsomes (2 μg protein) and substrate (1 μM), the labelled fatty acid acyl-CoA species and microsomes are absorbed with charcoal and separated from [^3H]H2O by centrifugation. The formation of [^3H]H2O is used as a measure of SCD activity. Compounds at concentrations starting at 10 μM to 0.1 nM or vehicle (DMSO) are preincubated for 5 minutes with the microsomes before addition of the substrate. The concentration-responses are fitted with sigmoidal curves to obtain IC50 values.

SMILES | IC50 [µM]
Cc1c(C(=O)Nc2ccc(OCCC(C)C)cc2)nnn1Cc1ccc(-c2ccccc2)cc1 [1-(4-Biphenylylmethyl)-5-methyl-N-{4-[(3-methylbutyl)oxy]phenyl}-1H-1,2,3-triazole-4-carboxamide] | > 10
CNC(=O)c1cccc(NC(=O)c2nnn(Cc3ccc(Cl)c(Cl)c3)c2C)c1C [1-[(3,4-dichlorophenyl)methyl]-5-methyl-N-{2-methyl-3-[(methylamino)carbonyl]phenyl}-1H-1,2,3-triazole-4-carboxamide] | > 10
CNC(=O)c1cc(NC(=O)c2nnn(Cc3ccc(Cl)c(Cl)c3)c2C)cc(C(=O)NC)c1 [5-[({1-[(3,4-Dichlorophenyl)methyl]-5-methyl-1H-1,2,3-triazol-4-yl}carbonyl)amino]-N,N′-dimethyl-1,3-benzenedicarboxamide] | > 10
Cc1c(C(=O)Nc2cc(C(=O)O)cc(C(=O)O)c2)nnn1Cc1cccc(Cl)c1 [5-[({1-[(3-Chlorophenyl)methyl]-5-methyl-1H-1,2,3-triazol-4-yl}carbonyl)amino]-1,3-benzenedicarboxylic acid] | > 10
COC(=O)c1ccc(NC(=O)c2nnn(Cc3ccccc3)c2C)cc1C(=O)OC [Dimethyl 4-({[5-methyl-1-(phenylmethyl)-lH-1,2,3-triazol-4-yl]carbonyl}amino)-1,2-benzenedicarboxylate] | > 10
COC(=O)c1cc(NC(=O)c2nnn(Cc3ccccc3)c2C)cc(C(=O)OC)c1 [Dimethyl 5-({[5-methyl-1-(phenylmethyl)-lH-1,2,3-triazol-4-yl]carbonyl}amino)-1,3-benzenedicarboxylate] | > 10
COC(=O)c1cc(NC(=O)c2nnn(Cc3ccc(Cl)c(Cl)c3)c2C)cc(C(=O)OC)c1 [Dimethyl 5-[({1-[(3,4-dichlorophenyl)methyl]-5-methyl-1H-1,2,3-triazol-4-yl}carbonyl)amino]-1,3-benzenedicarboxylate] | > 10
COC(=O)c1cc(NC(=O)c2nnn(Cc3cccc(Cl)c3)c2C)cc(C(=O)OC)c1 [Dimethyl 5-[({1-[(3-chlorophenyl)methyl]-5-methyl-1H-1,2,3-triazol-4-yl}carbonyl)amino]-1,3-benzenedicarboxylate] | > 10
COC(=O)c1cc(NC(=O)c2nnn(Cc3ccc(F)cc3)c2C)cc(C(=O)OC)c1 [Dimethyl 5-[({1-[(4-fluorophenyl)methyl]-5-methyl-1H-1,2,3-triazol-4-yl}carbonyl)amino]-1,3-benzenedicarboxylate] | > 10
COC(=O)c1cccc(NC(=O)c2nnn(Cc3ccc(Cl)c(Cl)c3)c2C)c1C [Methyl 3-[({1-[(3,4-dichlorophenyl)methyl]-5-methyl-1H-1,2,3-triazol-4-yl}carbonyl)amino]-2-methylbenzoate] | > 10
COC(=O)c1cc(NC(=O)c2nnn(Cc3ccc(Cl)c(Cl)c3)c2C)ccc1OC [Methyl 5-[({1-[(3,4-dichlorophenyl)methyl]-5-methyl-1H-1,2,3-triazol-4-yl}carbonyl)amino]-2-(methyloxy)benzoate] | > 10
COc1ccc(NC(=O)c2nnn(Cc3ccc(C(C)C)cc3)c2C)cc1OC [N-[3,4-Bis(methyloxy)phenyl]-5-methyl-1-{[4-(1-methylethyl)phenyl]methyl}-1H-1,2,3-triazole-4-carboxamide] | > 10

tested on: not given; test: not given; conditions: not given

SMILES | melting point [°C]
Cc1c(C(=O)Nc2ccc(CO)c(CO)c2)nnn1Cc1cccc(F)c1 [Example 85, N-[3,4-bis(Hydroxymethyl)phenyl]-1-[(3-fluorophenyl)methyl]-5-methyl-1H-1,2,3-triazole-4-carboxamide] | 157.2
Cc1c(C(=O)Nc2cccc(CO)c2)nnn1Cc1cccc(Cl)c1 [Example 86, 1-[(3-Chlorophenyl)methyl]-N-[3-(hydroxymethyl)phenyl]-5-methyl-1H-1,2,3-triazole-4-carboxamide] | 151.9
Cc1c(C(=O)Nc2cccc(CO)c2)nnn1Cc1ccc(F)cc1 [Example 87, 1-[(4-Fluorophenyl)methyl]-N-[3-(hydroxymethyl)phenyl]-5-methyl-1H-1,2,3-triazole-4-carboxamide] | 142.1
Cc1c(C(=O)Nc2ccc(CO)cc2)nnn1Cc1cccc(Cl)c1 [Example 88, 1-[(3-Chlorophenyl)methyl]-N-[4-(hydroxymethyl)phenyl]-5-methyl-1H-1,2,3-triazole-4-carboxamide] | 136.2
Cc1c(C(=O)Nc2cccc(CO)c2)nnn1Cc1cccc(F)c1 [Example 89, 1-[(3-Fluorophenyl)methyl]-N-[3-(hydroxymethyl)phenyl]-5-methyl-1H-1,2,3-triazole-4-carboxamide] | 124.7
Cc1c(C(=O)Nc2ccc(CO)cc2)nnn1Cc1ccc(F)cc1 [Example 90, 1-[(4-Fluorophenyl)methyl]-N-[4-(hydroxymethyl)phenyl]-5-methyl-1H-1,2,3-triazole-4-carboxamide] | 145.6
Cc1c(C(=O)Nc2ccc(CO)cc2)nnn1Cc1cccc(F)c1 [Example 91, 1-[(3-Fluorophenyl)methyl]-N-[4-(hydroxymethyl)phenyl]-5-methyl-1H-1,2,3-triazole-4-carboxamide] | 134.3
CNC(=O)c1cc(CO)cc(NC(=O)c2nnn(Cc3ccc(Cl)c(Cl)c3)c2C)c1 [Example 92, 1-[(3,4-Dichlorophenyl)methyl]-N-{3-(hydroxymethyl)-5-[(methylamino)carbonyl]phenyl}-5-methyl-1H-1,2,3-triazole-4-carboxamide] | 223 to 225
Cc1c(NC(=O)c2ccc(CO)cc2)nnn1Cc1ccc(Cl)c(Cl)c1 [Example 93, N-{1-[(3,4-Dichlorophenyl)methyl]-5-methyl-1H-1,2,3-triazol-4-yl}-4-(hydroxymethyl)benzamide] | 160
